Results published in patent US6399660B1, “Aminoethylphenoxyacetic acid derivatives and drugs for pain remission and calculi removal promotion in urinary lithiasis” (Kissei Pharmaceutical Co., Ltd., priority 1997, dated 2002).

Legend:
Assay type in all cases: cell-based
β1-Adrenoceptor = target: T1, β1-Adrenoceptor (Rattus norvegicus, UniProt P18090); experiment: β1-Adrenoceptor stimulating effects: heart rate increase in isolated rat atrium (Magnus method); conditions: isolated atria of male SD rats
T1 construct: Atria of male SD rats (350 to 400 g in body weight) were isolated; from tissue; host or cells: isolated atria of male SD rats
T1 sequence (P18090 whole entry): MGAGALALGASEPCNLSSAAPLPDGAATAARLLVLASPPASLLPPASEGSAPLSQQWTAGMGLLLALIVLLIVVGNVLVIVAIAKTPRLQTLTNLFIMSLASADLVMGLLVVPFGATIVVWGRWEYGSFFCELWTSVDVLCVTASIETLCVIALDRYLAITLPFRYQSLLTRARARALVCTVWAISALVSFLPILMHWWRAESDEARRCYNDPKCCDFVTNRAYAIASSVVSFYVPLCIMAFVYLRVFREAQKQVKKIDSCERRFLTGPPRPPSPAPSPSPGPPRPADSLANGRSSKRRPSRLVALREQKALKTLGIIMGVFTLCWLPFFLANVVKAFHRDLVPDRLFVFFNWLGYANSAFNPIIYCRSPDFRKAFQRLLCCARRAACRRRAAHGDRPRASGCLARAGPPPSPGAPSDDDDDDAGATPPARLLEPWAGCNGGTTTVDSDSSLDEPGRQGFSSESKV
Description: Atria of male SD rats (350 to 400 g in body weight) were isolated and the experiment was conducted according to the Magnus methods. The preparations with a tension of 1 g were exposed to Krebs-Henseleit solution maintained at 37° C. and gassed with a mixture of 95% oxygen and 5% carbon dioxide. The cardiac contractility was isometrically measured with a force-displacement transducer and recorded by a rectigraph. The drug efficacy was evaluated as the molar concentration required to produce 20 beats/minute increment of the heart rate (i.e., ECΔ20 value).

β2-Adrenoceptor = target: T2, β2-Adrenoceptor (Rattus norvegicus, UniProt P10608); experiment: β2-Adrenoceptor stimulating effects: inhibition of spontaneous contractions of isolated pregnant rat uterus (Magnus method); conditions: isolated uterus of pregnant SD rats (day 21), cumulative addition every 5 minutes, read-out: EC50 value (concentration required to produce 50% inhibition of uterine contractions), Test Example 1
T2 construct: Uteri of pregnant SD rats (pregnancy day 21) were isolated and longitudinal smooth muscle strips; from tissue; host or cells: longitudinal smooth muscle strips of pregnant SD rat uterus (day 21)
T2 sequence (P10608 whole entry): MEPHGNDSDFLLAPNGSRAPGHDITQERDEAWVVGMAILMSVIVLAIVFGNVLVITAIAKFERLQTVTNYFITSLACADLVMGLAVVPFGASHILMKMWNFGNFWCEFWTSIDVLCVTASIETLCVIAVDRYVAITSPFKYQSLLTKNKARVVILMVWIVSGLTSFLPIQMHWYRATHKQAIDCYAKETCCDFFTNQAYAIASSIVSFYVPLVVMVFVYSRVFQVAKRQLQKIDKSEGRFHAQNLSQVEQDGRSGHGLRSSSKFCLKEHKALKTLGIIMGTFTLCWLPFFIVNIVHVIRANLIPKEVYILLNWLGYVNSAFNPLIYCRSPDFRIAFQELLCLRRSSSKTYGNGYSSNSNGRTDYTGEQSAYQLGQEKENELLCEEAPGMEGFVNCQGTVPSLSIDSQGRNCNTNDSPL
Description: Uteri of pregnant SD rats (pregnancy day 21) were isolated and longitudinal smooth muscle strips of approximately 15 mm in length and approximately 5 mm in width free from the basal plate were prepared. The experiment was conducted according to the Magnus method. The preparations with a tension of 1 g were exposed to Locke-Ringer solution maintained at 37° C. and gassed with a mixture of 95% oxygen and 5% carbon dioxide. Spontaneous contractions of myometrium were isometrically measured with a force-displacement transducer and recorded by a rectigraph. The drug was cumulatively added to the Magnus bath every 5 minutes. The drug efficacy was evaluated as the concentration of the drug required to produce 50% of the inhibition of uterine contractions (i.e., EC50 value) by comparing the sum of uterine contractions during 5 minutes after the addition of the drug with the sum of uterine contractions during 5 minutes before the addition of the drug (100%).

β3-Adrenoceptor = β3-Adrenoceptor (Mustela putorius furo, UniProt M3YEU4); experiment: β3-Adrenoceptor stimulating effects: inhibition of spontaneous contractions of isolated ferret ureter (Magnus method); conditions: isolated male ferret ureter, cumulative addition every 3 minutes, read-out: EC50 value (concentration required to produce 50% inhibition of ureter contractions), Test Example 2
Sequence of β3-Adrenoceptor (M3YEU4 entry or part of it): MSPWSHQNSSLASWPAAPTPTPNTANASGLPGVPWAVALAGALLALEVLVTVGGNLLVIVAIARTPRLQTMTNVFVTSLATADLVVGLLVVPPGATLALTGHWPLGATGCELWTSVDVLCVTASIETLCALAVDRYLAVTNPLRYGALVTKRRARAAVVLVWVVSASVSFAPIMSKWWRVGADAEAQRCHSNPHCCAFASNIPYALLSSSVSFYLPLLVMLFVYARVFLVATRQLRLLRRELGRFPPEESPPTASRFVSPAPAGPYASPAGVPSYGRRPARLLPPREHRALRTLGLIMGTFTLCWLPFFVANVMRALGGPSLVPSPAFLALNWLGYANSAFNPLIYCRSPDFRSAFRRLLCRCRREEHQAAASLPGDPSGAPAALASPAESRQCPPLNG
Description: After removal of connective tissue, longitudinal smooth muscle strips of approximately 20 mm in length were prepared. The experiment was conducted according to the Magnus method. The preparations with a tension of 0.5 g were exposed to Krebs-Henseleit solution maintained at 37° C. and gassed with a mixture of 95% oxygen and 5% carbon dioxide. Spontaneous contractions of ureters were isometrically measured with a force-displacement transducer and recorded by a rectigraph. The drug was cumulatively added to the Magnus bath every 3 minutes.

Row | SMILES | ECΔ20 value (molar concentration required to produce 20 beats/minute increment of the heart rate), Test Example 3 (β1-Adrenoceptor) [nM] | EC50 (β2-Adrenoceptor) [nM] | EC50 (β3-Adrenoceptor) [nM] | ECΔ20 value (molar concentration required to produce 20 beats/minute increment of the heart rate), Test Example 3 (β1-Adrenoceptor; listed as 2-[4-[2-[[(1S,2R)-2-hydroxy-2-(4-hydroxyphenyl)-1-methylethyl]amino]ethyl]phenox) [nM]
1 | C[C@H](NCCc1ccc(OCC(=O)OCc2ccccc2)cc1F)[C@H](O)c1ccc(O)cc1.Cl [Compound 7, Benzyl 2-[3-fluoro-4-[2-[[(1S,2R)-2-hydroxy-2-(4-hydroxyphenyl)-1-methylethyl]amino]ethyl]phenoxy]acetate hydrochloride] | 300 | 3.3 |  | 
2 | C[C@H](NCCc1ccc(OCC(=O)O)cc1Cl)[C@H](O)c1ccc(O)cc1 [Compound 8, 2-[3-Chloro-4-[2-[[(1S,2R)-2-hydroxy-2-(4-hydroxyphenyl)-1-methyl-ethyl]amino]ethyl]phenoxy]acetic acid] | 110 | 13 |  | 
3 | C[C@H](NCCc1ccc(OCC(=O)O)cc1)[C@H](O)c1ccc(O)cc1 [Compound 9, 2-[4-[2-[[(1S,2R)-2-Hydroxy-2-(4-hydroxyphenyl)-1-methylethyl]-amino]ethyl]phenoxy]acetic acid] | 1300 |  | 14 | 1300
4 | C[C@H](NCCc1ccc(OCC(=O)O)cc1F)[C@H](O)c1ccc(O)cc1 [Compound 10, 2-[3-Fluoro-4-[2-[[(1S,2R)-2-hydroxy-2-(4-hydroxyphenyl)-1-methyl-ethyl]amino]ethyl]phenoxy]acetic acid] | 1000 | 39 |  | 
